In US20120270875A1, “PYRIMIDINE AMIDE COMPOUNDS” (priority 2011, published 2012):

These compounds were tested against sLFA-1/ICAM-1 (Homo sapiens, UniProt P05107+P20701, DEL701-769) (assay: sLFA-1/ICAM-1 ELISA). Conditions: sLFA-1 coated plates, 5dICAM-Fc binding, ELISA; read-out: LFA-1/ICAM (IC50).
Type: binding
Procedure: sLFA-1/ICAM-1 ELISA and Mac-1/ICAM-1 ELISA
Plates were coated with either 50 μl/well of 2.0 ug/ml solution of sLFA-1 or Mac-1 receptor in divalent cation buffer (1 mM MnCl2, 0.14M NaCl, 20 mM HEPES pH 7.2) at 4° C. overnight. Two hundred fifty μl of blocking buffer (1% BSA in divalent cation buffer) was added to each well 1 hour at 37° C. Plates were washed 3 times with wash buffer (TBS/0.05% Tween-20/1 mM MnCl2). The compound to be tested was solubilized in DMSO. A series of 1:3 dilutions were performed to achieve a concentration range of 0.45 nM-3 uM. Fifty μl of binding buffer (0.5% BSA in divalent cation buffer)/1% DMSO and 50 μl of the solutions to be tested were added to the appropriate wells and incubated for 1 hour. Fifty μl of 5dICAM-Fc (27 ng/ml) was added to the appropriate wells and 50 μl binding buffer was added to non-specific binding wells and incubated for 2 hours and washed. One hundred μl of 1:4000 HRP-goat anti-huIgG was added to each well and incubated for 1 hour and washed. One hundred μl of 1:1 TMB solution was added to each well and developed for 20 min at room temperature. Color development was stopped by adding 100 μl H3PO4 to each well. Absorbance was measured at 450 nm.

Sequence of sLFA-1/ICAM-1 (P20701 26-1090 limits assumed, stated change not applied): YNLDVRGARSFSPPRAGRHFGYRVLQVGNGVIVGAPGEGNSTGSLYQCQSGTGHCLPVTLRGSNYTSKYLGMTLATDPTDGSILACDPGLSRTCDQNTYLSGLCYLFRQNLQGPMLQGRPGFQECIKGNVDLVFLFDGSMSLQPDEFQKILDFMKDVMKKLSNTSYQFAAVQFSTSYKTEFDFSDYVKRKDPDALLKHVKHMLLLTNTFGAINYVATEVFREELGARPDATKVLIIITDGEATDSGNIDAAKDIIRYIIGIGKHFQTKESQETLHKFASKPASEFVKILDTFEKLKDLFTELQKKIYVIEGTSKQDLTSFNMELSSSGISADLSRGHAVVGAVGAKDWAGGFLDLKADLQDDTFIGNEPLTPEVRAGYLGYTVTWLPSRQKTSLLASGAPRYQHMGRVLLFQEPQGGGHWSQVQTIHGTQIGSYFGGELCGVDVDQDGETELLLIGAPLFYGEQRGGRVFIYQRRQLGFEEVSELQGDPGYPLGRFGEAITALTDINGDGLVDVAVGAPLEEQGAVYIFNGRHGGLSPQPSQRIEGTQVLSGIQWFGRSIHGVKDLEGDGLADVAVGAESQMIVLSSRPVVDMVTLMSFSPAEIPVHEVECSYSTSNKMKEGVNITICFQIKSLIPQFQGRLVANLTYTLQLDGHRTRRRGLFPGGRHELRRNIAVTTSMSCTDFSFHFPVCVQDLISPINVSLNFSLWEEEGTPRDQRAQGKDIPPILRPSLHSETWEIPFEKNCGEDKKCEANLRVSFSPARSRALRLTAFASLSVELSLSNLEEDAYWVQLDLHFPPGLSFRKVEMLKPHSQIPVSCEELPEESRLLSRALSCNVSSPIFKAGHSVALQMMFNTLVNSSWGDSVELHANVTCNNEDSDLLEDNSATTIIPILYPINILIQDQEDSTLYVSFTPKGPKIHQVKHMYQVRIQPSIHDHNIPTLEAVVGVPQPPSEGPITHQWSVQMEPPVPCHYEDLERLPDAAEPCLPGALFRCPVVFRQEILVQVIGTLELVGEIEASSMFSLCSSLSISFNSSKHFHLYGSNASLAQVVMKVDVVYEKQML
Sequence of sLFA-1/ICAM-1 (P05107 23-700 limits assumed, stated change not applied): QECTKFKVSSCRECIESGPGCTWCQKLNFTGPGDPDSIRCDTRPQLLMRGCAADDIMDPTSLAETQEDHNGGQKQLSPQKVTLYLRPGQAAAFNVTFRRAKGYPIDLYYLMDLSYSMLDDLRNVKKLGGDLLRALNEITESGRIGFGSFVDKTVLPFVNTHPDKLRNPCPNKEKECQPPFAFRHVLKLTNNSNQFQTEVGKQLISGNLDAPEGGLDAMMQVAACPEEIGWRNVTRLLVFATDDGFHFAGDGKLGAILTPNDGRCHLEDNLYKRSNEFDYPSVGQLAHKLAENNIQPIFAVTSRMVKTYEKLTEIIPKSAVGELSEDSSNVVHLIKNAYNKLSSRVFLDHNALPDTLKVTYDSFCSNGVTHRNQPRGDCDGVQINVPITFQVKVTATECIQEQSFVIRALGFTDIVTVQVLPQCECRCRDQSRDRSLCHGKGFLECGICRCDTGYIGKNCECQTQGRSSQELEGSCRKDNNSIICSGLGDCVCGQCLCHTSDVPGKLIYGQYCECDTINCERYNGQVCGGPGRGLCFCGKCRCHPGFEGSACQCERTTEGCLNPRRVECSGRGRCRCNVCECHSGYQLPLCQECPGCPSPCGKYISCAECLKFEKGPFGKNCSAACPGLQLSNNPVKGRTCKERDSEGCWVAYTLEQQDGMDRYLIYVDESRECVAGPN

Point of comparison: `Cc1nc(NCc2ccccc2-c2cccc(O)c2)nc(C)c1C(=O)N[C@@H](CNC(=O)c1cccs1)C(=O)O` [Example 12, (S)-2-({2-[(3′-hydroxy-biphenyl-2-ylmethyl)-amino]-4,6-dimethyl-pyrimidine-5-carbonyl}-amino)-3-[(thiophene-2-carbonyl)-amino]-propionic acid], IC50 0.191 µM. Against it:
- Cc1ccsc1C(=O)NC[C@H](NC(=O)c1c(C)nc(NCCCc2cccc(O)c2)nc1C)C(=O)O [Example 91, (S)-2-({2-[3-(3-hydroxy-phenyl)-propylamino]-4,6-dimethyl-pyrimidine-5-carbonyl}-amino)-3-[(3-methyl-thiophene-2-carbonyl)-amino]-propionic acid] — 4.5-fold lower, 0.042 µM
- O=C(N[C@@H](CNC(=O)c1cccs1)C(=O)O)c1cnc(NCCCc2cccc(O)c2)nc1 [Example 75, (S)-2-({2-[3-(3-Hydroxy-phenyl)-propylamino]-pyrimidine-5-carbonyl}-amino)-3-[(thiophene-2-carbonyl)-amino]-propionic acid] — 3-fold lower, 0.064 µM
- Cc1nc(NCCCc2cccc(O)c2)nc(C)c1C(=O)N[C@@H](CNC(=O)C12CC3CC(CC(C3)C1)C2)C(=O)O [Example 99, (S)-3-[(Adamantane-1-carbonyl)-amino]-2-({2-[3-(3-hydroxy-phenyl)-propylamino]-4,6-dimethyl-pyrimidine-5-carbonyl}-amino)-propionic acid] — 1.5-fold higher, 0.287 µM
- Cc1nc(NCCCc2cccc(O)c2)nc(C)c1C(=O)N[C@@H](CNC(=O)CC1CCCCC1)C(=O)O [Example 44, (S)-2-({2-[3-(3-hydroxy-phenyl)-propylamino]-4,6-dimethyl-pyrimidine-5-carbonyl}-amino)-3-[1-cyclohexyl-acetylamino]-propionic acid] — 1.7-fold lower, 0.115 µM
- Cc1nc(NCCCc2cccc(O)c2F)nc(C)c1C(=O)N[C@@H](CNC(=O)c1cccs1)C(=O)O [Example 70, (S)-2-({2-[3-(2-Fluoro-3-hydroxy-phenyl)-propylamino]-4,6-dimethyl-pyrimidine-5-carbonyl}-amino)-3-[(thiophene-2-carbonyl)-amino]-propionic acid] — higher, ≥ 3 µM
- Cc1nc(NCCCc2cc(O)ccc2F)nc(C)c1C(=O)N[C@@H](CNC(=O)c1cccs1)C(=O)O [Example 71, (S)-2-({2-[3-(2-Fluoro-5-hydroxy-phenyl)-propylamino]-4,6-dimethyl-pyrimidine-5-carbonyl}-amino)-3-[(thiophene-2-carbonyl)-amino]-propionic acid] — within 1.5-fold, 0.224 µM
- COC(=O)NC[C@H](NC(=O)c1c(C)nc(NCCCc2cccc(O)c2)nc1C)C(=O)O [Example 109, (S)-2-({2-[3-(3-Hydroxy-phenyl)-propylamino]-4,6-dimethyl-pyrimidine-5-carbonyl}-amino)-3-methoxycarbonylamino-propionic acid] — within 1.5-fold, 0.198 µM
- Cc1nc(C)c(C(=O)NC[C@H](NC(=O)c2c(C)nc(NCCCc3cccc(O)c3)nc2C)C(=O)O)s1 [Example 43, (S)-2-({2-[3-(3-hydroxy-phenyl)-propylamino]-4,6-dimethyl-pyrimidine-5-carbonyl}-amino)-3-[(2,4-dimethyl-thiazole-5-carbonyl)-amino]-propionic acid] — within 1.5-fold, 0.128 µM
- Cc1nc(NCCCc2ccc(F)c(O)c2)nc(C)c1C(=O)N[C@@H](CNC(=O)c1cccs1)C(=O)O [Example 65, (S)-2-({2-[3-(4-Fluoro-3-hydroxy-phenyl)-propylamino]-4,6-dimethyl-pyrimidine-5-carbonyl}-amino)-3-[(thiophene-2-carbonyl)-amino]-propionic acid] — 6.8-fold higher, 1.3 µM
- Cc1nc(NCCCc2cccc(O)c2)nc(C)c1C(=O)N[C@@H](CNC(=O)c1ccccn1)C(=O)O [Example 42, (S)-2-({2-[3-(3-hydroxy-phenyl)-propylamino]-4,6-dimethyl-pyrimidine-5-carbonyl}-amino)-3-[(pyridine-2-carbonyl)-amino]-propionic acid] — 2.2-fold lower, 0.085 µM
- Cc1nc(NCCCc2cccc(O)c2C)nc(C)c1C(=O)N[C@@H](CNC(=O)c1cccs1)C(=O)O [Example 66, (S)-2-({2-[3-(3-Hydroxy-2-methyl-phenyl)-propylamino]-4,6-dimethyl-pyrimidine-5-carbonyl}-amino)-3-[(thiophene-2-carbonyl)-amino]-propionic acid] — 1.7-fold lower, 0.111 µM
- Cc1nc(NC2CCc3cc(O)ccc3C2)nc(C)c1C(=O)N[C@@H](CNC(=O)c1cccs1)C(=O)O (stereo partly drawn) [Example 17, (S) 2-(2-[6-hydroxy-1,2,3,4-tetrahydro-naphthalen-2-ylamino]-4,6-dimethyl-pyrimidine-5-carbonyl-amino)-3-[(thiophene-2-carbonyl)-amino]-propionic acid] — 1.6-fold higher, 0.309 µM
- Cc1nc(NCCCc2cccc(O)c2)nc(C)c1C(=O)N[C@@H](CNC(=O)c1ccsc1)C(=O)O [Example 85, (S)-2-({2-[3-(3-hydroxy-phenyl)-propylamino]-4,6-dimethyl-pyrimidine-5-carbonyl}-amino)-3-[(thiophene-3-carbonyl)-amino]-propionic acid] — 16-fold lower, 0.012 µM
- Cc1nc(NCCCc2cccc(O)c2)nc(C)c1C(=O)N[C@@H](CNC(=O)c1csc(-c2ccncc2)n1)C(=O)O (single isomer, unassigned) [Example 41] — 1.8-fold higher, 0.353 µM
- Cc1nc(NCCCc2ccc(O)cc2)nc(C)c1C(=O)N[C@@H](CNC(=O)c1cccs1)C(=O)O [Example 69, (S)-2-({2-[3-(4-Hydroxy-phenyl)-propylamino]-4,6-dimethyl-pyrimidine-5-carbonyl}-amino)-3-[(thiophene-2-carbonyl)-amino]-propionic acid] — 6.8-fold lower, 0.028 µM
- Cc1nc(NC2CCc3cccc(O)c3C2)nc(C)c1C(=O)N[C@@H](CNC(=O)c1cccs1)C(=O)O (stereo partly drawn) [Example 18, (S) 2-(2-[8-hydroxy-1,2,3,4-tetrahydro-naphthalen-2-ylamino]-4,6-dimethyl-pyrimidine-5-carbonyl-amino)-3-[(thiophene-2-carbonyl)-amino]-propionic acid] — 4-fold lower, 0.048 µM
- Cc1nc(NCCCc2cccc(O)c2)nc(C)c1C(=O)N[C@@H](CNC(=O)c1ccc(Cl)s1)C(=O)O [Example 95, (S)-3-[(5-Chloro-thiophene-2-carbonyl)-amino]-2-({2-[3-(3-hydroxy-phenyl)-propylamino]-4,6-dimethyl-pyrimidine-5-carbonyl}-amino)-propionic acid] — within 1.5-fold, 0.265 µM
- Cc1nc(NCc2ccccc2-c2ccccc2O)nc(C)c1C(=O)N[C@@H](CNC(=O)c1cccs1)C(=O)O [Example 14, (S)-2-({2-[(2′-hydroxy-biphenyl-2-ylmethyl)-amino]-4,6-dimethyl-pyrimidine-5-carbonyl}-amino)-3-[(thiophene-2-carbonyl)-amino]-propionic acid] — 2.6-fold higher, 0.5 µM
- O=C(NC[C@H](NC(=O)c1cnc(NCCCc2cccc(O)c2)nc1C(F)(F)F)C(=O)O)c1cccs1 [Example 77, (S)-2-({2-[3-(3-Hydroxy-phenyl)-propylamino]-4-trifluoromethyl-pyrimidine-5-carbonyl}-amino)-3-[(thiophene-2-carbonyl)-amino]-propionic acid] — 2-fold higher, 0.378 µM
- Cc1nc(NCCCc2cccc(O)c2)nc(C)c1C(=O)N[C@@H](CNC(=O)c1nccc2ccccc12)C(=O)O [Example 45, (S)-2-({2-[3-(3-hydroxy-phenyl)-propylamino]-4,6-dimethyl-pyrimidine-5-carbonyl}-amino)-3-[(isoquinoline-1-carbonyl)-amino]-propionic acid] — 2.2-fold lower, 0.087 µM
- CCc1ccc(C(=O)NC[C@H](NC(=O)c2c(C)nc(NCCCc3cccc(O)c3)nc2C)C(=O)O)s1 [Example 105, (S)-[(5-Ethyl-thiophene-2-carbonyl)-amino]-2-({2-[3-(3-hydroxy-phenyl)-propylamino]-4,6-dimethyl-pyrimidine-5-carbonyl}-amino)-3-propionic acid] — 1.9-fold lower, 0.103 µM
- Cc1nc(NCCCc2cccc(O)c2)nc(C)c1C(=O)N[C@@H](CNC(=O)c1sccc1Cl)C(=O)O [Example 103, (S)-3-[(3-Chloro-thiophene-2-carbonyl)-amino]-2-({2-[3-(3-hydroxy-phenyl)-propylamino]-4,6-dimethyl-pyrimidine-5-carbonyl}-amino)-propionic acid] — 2.9-fold lower, 0.066 µM
- Cc1nc(NCCCc2cc(O)ccc2Cl)nc(C)c1C(=O)N[C@@H](CNC(=O)c1cccs1)C(=O)O [Example 68, (S)-2-({2-[3-(2-Chloro-5-hydroxy-phenyl)-propylamino]-4,6-dimethyl-pyrimidine-5-carbonyl}-amino)-3-[(thiophene-2-carbonyl)-amino]-propionic acid] — 1.5-fold higher, 0.291 µM
- Cc1nc(NCCCc2cccc(O)c2)nc(C)c1C(=O)N[C@@H](CNC(=O)c1csc(-c2ccncc2)n1)C(=O)O [Example 47, (S)-2-({2-[3-(3-hydroxy-phenyl)-propylamino]-4,6-dimethyl-pyrimidine-5-carbonyl}-amino)-3-[(2-pyridin-4-yl-thiazole-4-carbonyl)-amino]-propionic acid] — 2.7-fold lower, 0.07 µM
- Cc1cccc(C(=O)NC[C@H](NC(=O)c2c(C)nc(NCCCc3cccc(O)c3)nc2C)C(=O)O)c1 [Example 97, (S)-2-({2-[3-(3-hydroxy-phenyl)-propylamino]-4,6-dimethyl-pyrimidine-5-carbonyl}-amino)-3-(3-methyl-benzoylamino)-propionic acid] — within 1.5-fold, 0.177 µM
